Here are results for eleven molecules from patent US20210179591A1, “NEW COMPOUNDS FOR USE AS A THERAPEUTICALLY ACTIVE SUBSTANCE AND IN PARTICULAR FOR USE IN THE TREATMENT OF TUMORS” (ETH ZURICH, priority 2017, published 2021).

Where two headings read alike, the source gives them in different places.

The target in one experiment is T1, GST-DYRK1B (Homo sapiens, UniProt Q9Y463).
T1 construct: purchased ThermoFisher
As to the kind of experiment: IC50 determination of DYRK1B inhibitors (ADP-Glo in vitro kinase assay with DYRKtide). Type of experiment: biochemical. The conditions noted are these: ATP 100 μM. Here is the method:
In a preferred embodiment, the compounds of the present invention show inhibition of DYRK1B and/or DYRK1A to a higher extent than expected by the skilled person. The inhibition may be expressed as IC50, i.e. the concentration necessary to inhibit activity to 50%. […] The IC50 value may be determined using methods such as those described in the examples. As such, a suitable method comprises the steps of incubating GST-DYRK1B (e.g. at 5 nM) and DYRKtide (e.g. at 50 μM) in kinase buffer, following compound dispensing (e.g. 1 μl), e.g. 2 μl of ATP (final concentration e.g. 100 μM) and incubating, preferably at room temperature. After that, a detectable compound such as ADP-Glo™ reagent can be dispensed and incubated, preferably at room temperature. Finally, Kinase Detection Reagent can be dispensed and the solution be incubated before measuring.
Compounds of formula 16, 12, 14, 10 and 19 inhibited DYRK1B (SEQ. ID. NO. 1) kinase activity with an IC50 of 2 μM, 2 μM, 3 μM, 4 μM and 3 μM respectively. Titration curves show average of n=3 independent experiments, average±SD.
GST-DYRK1B (5 nM) and DYRKtide (50 μM) (Lucerna-Chem AG, D96-58) diluted in kinase buffer were dispensed in white 384 well plate (3572, Corning, N.Y., USA) (2 μl/well). Following compound dispensing (1 μl), 2 μl of ATP (final concentration 100 μM) was added and incubated for 30 min at room temperature. After that, 5 μl of ADP-Glo™ reagent was dispensed and incubated for 40 min at room temperature. Finally, 10 ul of Kinase Detection Reagent was dispensed and incubated for 30 min before measuring the plate on a Tecan infinite M1000pro plate reader (Luminescence mode).
On the technique in general: ADP-Glo turns the ADP formed in a reaction into a luminescent signal.

In a further experiment the target is T2, DYRK1B (Homo sapiens, UniProt Q9Y463).
T2 construct: purchased ThermoFisher
As to the kind of experiment: In vitro kinase assay, immunoblot of p27 Ser10 phosphorylation by recombinant DYRK1B. Format: biochemical. The conditions noted are these: recombinant DYRK1B and p27, 100 μM ATP, FIG. 5a. As to the method:
(§1) Cells were lysed in lysis buffer (50 mM Tris-HCl pH 7.5, 250 mM NaCl, 0.5% NP-40, 5 mM NaCl, 5 mM NaF, 5 mM EDTA, 0.5 mM EGTA). Protein were separated in 10% SDS/PAGE gels, as previously described. Ser^10-p27 (sc-12939-R) (1:500) and DYRK1B (sc-390417) (1:200) antibodies were purchased from Santa-Cruz, γ-TUBULIN (ab11316) (1:5000) from Abcam, p27 (610242) (1:500) from BD Biosciences and V5 (R960-25) from Life Technology.
28 ng of GST-DYRK1B (ThermoFisher, NP_004705) and 100 ng of GST-p27 were mixed in 45 μl of kinase buffer (50 mM HEPES (pH 7.5), 1 mM DTT, MgCl2, 0.004% Triton X-100). Serial dilution of AZ191, compound of formula 10 or DMSO were added to the mix and incubated for 5 min at room temperature. 100 μM of ATP was added to start the kinase reaction which was carried out with constant shaking at 30° C. for 30 min. The reaction was terminated by addition of Laemmli buffer and boiled 5 min at 95° C. Finally, the proteins were separated by SDS page and detected by immunoblotting.
In general terms: Immunoblotting shows a protein as a band on a membrane.

The subject of experiment [1] is HT29-HRE MTS (hypoxic cancer cells). As to the kind of experiment: Compound treatment of multicellular tumor spheroids (MTS), SYTOX cell death in the hypoxic core. Format: cell-based. The conditions noted are these: FIGS. 4a to 4e. As to the method: DMSO was used as negative control, AZ191 as positive control and staurosporine (STS) as a general cytotoxic control. Whole MTS was visualized by Hoechst staining and cell death by SYTOX staining. Scale bar 200 μm. […] Average±SD of n>10 MTS from 3 biological replicates are shown. […] After 72h hours in culture, 10 μl of a mix of SYTOX Orange (S11368) (1:1000) and Hoechst 33258 (1 μM) diluted in DMEM was added to each well of the ULA plate and incubated overnight before image acquisition. MTS were imaged with a 5× objective on Zeiss observer Z.1 microscope equipped with an automated stage, with Hoechst channel used for autofocusing. For each well, images of Hoechst, YFP and SYTOX channels were acquired in the middle of the MTS. Images were analyzed with a custom ImageJ script. Briefly, Hoechst channel images were used to generate a mask of the MTS, which was then scaled to 1:3 and transferred to the SYTOX channel to measure the pixel intensity in the core area of the MTS. HT29-HRE solution (20,000 cells/ml) was dispensed in ULA plates (250 μl/well) and spun at 700 g for 5 min. After 48 h, MTS were treated with 10 μl of serial dilutions of AZ191, compound of formula 10 DMSO or STS. The next day a mix of Hoechst and SYTOX was added to the wells. MTS were then processed as described above.

Another experiment deals with HT29 cells. As to the kind of experiment: Immunoblot of p27 Ser10 phosphorylation in HT29 cells cultured in hypoxia. Type of experiment: cell-based. The conditions noted are these: FIG. 5b. As to the method: as §1
Where [2] appears, read: average of n=3 independent experiments, read-out: IC50 of DYRK1B kinase activity inhibition (ADP-Glo titration curve).
The mark [3] stands for this setting: IC50 values for selected examples, GST-DYRK1B 5 nM, DYRKtide 50 μM, read-out: IC50.

T1 sequence (Q9Y463 whole entry): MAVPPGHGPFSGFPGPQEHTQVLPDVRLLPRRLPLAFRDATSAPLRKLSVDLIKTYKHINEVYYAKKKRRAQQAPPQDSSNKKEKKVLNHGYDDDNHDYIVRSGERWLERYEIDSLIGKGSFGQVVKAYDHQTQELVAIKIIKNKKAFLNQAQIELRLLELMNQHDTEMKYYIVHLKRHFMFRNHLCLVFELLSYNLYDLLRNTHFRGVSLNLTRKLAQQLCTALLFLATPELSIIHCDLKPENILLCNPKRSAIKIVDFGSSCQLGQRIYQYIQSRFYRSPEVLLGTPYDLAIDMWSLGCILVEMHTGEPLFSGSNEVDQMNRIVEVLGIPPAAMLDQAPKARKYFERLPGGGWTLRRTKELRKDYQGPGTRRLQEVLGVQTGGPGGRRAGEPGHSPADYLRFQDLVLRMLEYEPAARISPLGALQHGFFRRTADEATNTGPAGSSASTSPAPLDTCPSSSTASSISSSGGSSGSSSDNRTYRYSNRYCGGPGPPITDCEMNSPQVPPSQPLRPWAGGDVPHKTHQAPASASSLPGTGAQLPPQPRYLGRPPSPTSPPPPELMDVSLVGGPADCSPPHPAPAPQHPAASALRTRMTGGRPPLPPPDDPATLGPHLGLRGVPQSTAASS
T2 sequence (Q9Y463 whole entry): as above

For the molecule `CC(Cc1ccncc1)Nc1nccc(-c2cnn(-c3ccccc3F)c2)n1` (centres unmarked) [compound of formula 16], on GST-DYRK1B (setting [2]), the IC50 worked out at 2 µM.
On the same count and under the same terms, under `COc1ccccc1-n1cc(-c2ccnc(NCc3c(C)n[nH]c3C)n2)cn1` [compound of formula 19] stands 3 µM.
For the molecule `Fc1ccccc1-n1cc(-c2ccnc(NCc3ccncc3)n2)cn1` [compound of formula 10, 4-(1-(2-fluorophenyl)-1H-pyrazole-4-yl)-N-(pyridine-4-ylmethyl)pyrimidine-2-amine], at GST-DYRK1B (setting [2]), the IC50 came out at 4 µM. Besides, on DYRK1B, the “inhibition of phosphorylation of DYRK1B substrate p27 at serine 10” value is “inhibited the phosphorylation of DYRK1B substrate p27 at serine 10”. In experiment [1], the “activity against hypoxic cancer cells” value is “high activity”. The “inhibition of phosphorylation of p27 at serine 10 in cells” value in the experiment with HT29 cells was “inhibited the phosphorylation of DYRK1B substrate p27 at serine 10”.
Consider `Fc1ccccc1-n1cc(-c2ccnc(NCC(F)F)n2)cn1` [N-(2,2-difluoroethyl)-4-[1-(2-fluorophenyl)-1H-pyrazol-4-yl]pyrimidin-2-amine], for which the IC50 at GST-DYRK1B (setting [3]) came out at 6.98 µM.
For `NCCCCCNc1nccc(-c2cnn(-c3ccccc3F)c2)n1` [N-{4-[1-(2-fluorophenyl)-1H-pyrazol-4-yl]pyrimidin-2-yl}pentane-1,5-diamine], the IC50 at GST-DYRK1B (setting [3]) is 3.97 µM.
For `NCCCCCNc1nccc(-c2cnn(-c3ccc(F)cc3)c2)n1` [N-{4-[1-(4-fluorophenyl)-1H-pyrazol-4-yl]pyrimidin-2-yl}pentane-1,5-diamine, reference compound], the IC50 at GST-DYRK1B (setting [3]) came out at 15.6 µM.
Take `Fc1ccccc1-n1cc(-c2ccnc(NC3CCOCC3)n2)cn1` [compound of formula 12]: the IC50 on GST-DYRK1B (setting [2]) is 2 µM.
Take `Cc1cccnc1CNc1nccc(-c2cnn(-c3ccccc3F)c2)n1` [4-[1-(2-fluorophenyl)-1H-pyrazol-4-yl]-N-[(3-methyl-2-pyridinyl)methyl]-2-pyrimidinamine]: the IC50 at GST-DYRK1B (setting [3]) was 3.52 µM.
Take `CCNc1nccc(-c2cnn(-c3ccccc3F)c2)n1` [compound of formula 14]: the IC50 on GST-DYRK1B (setting [2]) was 3 µM.
Consider `OCCCCCNc1nccc(-c2cnn(-c3ccccc3F)c2)n1` [5-({4-[1-(2-fluorophenyl)-1H-pyrazol-4-yl]pyrimidin-2-yl}amino)pentan-1-ol], for which, on GST-DYRK1B (setting [3]), the IC50 is 2 µM.
The same measure, in the same setting: under `COc1ccccc1-n1cc(-c2ccnc(NCc3cnc(C)cn3)n2)cn1` [4-[1-(2-methoxyphenyl)-1H-pyrazol-4-yl]-N-[(5-methyl-2-pyrazinyl)methyl]-2-pyrimidinamine] stands 10.3 µM.
